Measurements as given in US20180022780A1, “STABILIZATION ADRENOMEDULLIN DERIVATIVES AND USE THEREOF” (priority 2014, published 2018).
Numbered stars: 1 amine (or outer) side, 2 acyl side, 3 side chain; on linkers, the order of the positions; unused ones are H or OH. Bridge positions count the residues as written; N and C are the ends. Square brackets hold non-standard residues; d marks the D form. Peptide text beside a SMILES is read from it. * marks the point of attachment. Abu(4-yl) = O=C([C@H](CC[*:3])N[*:1])[*:2]; Palmitoyl = CCCCCCCCCCCCCCCC(=O)*; Dab = NCC[C@H](N)C(=O)O; Dap = NC[C@H](N)C(=O)O

Molecular target: T1, CLR fused to EYFP and RAMP2 fused to ECFP (Homo sapiens, UniProt O60895+Q16602)
T1 construct: EYFP; ECFP; expressed in transfected cells; host or cells: HEK-293 cells, transient co-transfection
Test: cAMP assay (CRE luciferase reporter, HEK-293 cells transiently co-transfected with CLR and RAMP2)
Type: cell-based
Conditions: Table 2, cAMP assay; HEK-293, CLR/RAMP2, CRE luciferase, 3 h stimulation, normalized to [G^14]ADM(14-52)
Procedure: HEK-293 cells (human embryonic kidney cells) were cultured in Ham's F-12/DMEM (1/1; v/v) containing 15% FCS under humidified atmosphere at 37° C. and 5% CO2 in 75 cm^2 cell culture flasks.
Cells were cultured in 75 cm^2 flasks to 70-80% confluency. 45 μl Metafectene® Pro was diluted in 900 μl Ham's F-12/DMEM (1/1; v/v) and incubated for 20 min at room temperature. 9000 ng plasmid containing DNA of CLR fused to EYFP and 3000 ng plasmid containing DNA of RAMP2 fused to ECFP were dissolved in 900 μl Ham's F-12/DMEM (1/1; v/v). The plasmid solution was mixed with the Metafectene® Pro solution and incubated for 25 min at room temperature. Medium was removed from the cells and replaced by 6 ml Ham's F-12/DMEM (1/1; v/v) containing 15% FCS. After addition of transfection solution the cells were incubated for 3 h under humidified atmosphere at 37° C. and 5% CO2.
For the second transfection 45 μl Metafectene® Pro was diluted in 900 μl Ham's F-12/DMEM (1/1; v/v) and incubated for 20 min at room temperature. 12000 ng of pGL4.29[luc2P/CRE/Hygro] plasmid containing DNA for the luciferase reporter gene luc2P (with CRE promotor region) were dissolved in 900 μl Ham's F-12/DMEM (1/1; v/v). The plasmid solution was mixed with the Metafectene® Pro solution and incubated for 25 min at room temperature. Medium was removed from the cells and replaced by 6 ml Ham's F-12/DMEM (1/1; v/v) containing 15% FCS. After addition of transfection solution the cells were incubated under humidified atmosphere at 37° C. and 5% CO2 over night.
For the coating of 96-well-plates 50 μl of a Poly-D-Lysine solution (1 ml stock solution of Poly-D-Lysin-hydrobromid/10 ml DPBS) were pipetted in each well and incubated for 40 min. After removal of the Poly-D-Lysine each well was washed with 50 μl DPBS. Transiently transfected cells were detached from the cell culture flask by removal of the medium, twofold washing with 5 m1 DPBS and resuspending in 13 ml Ham's F-12/DMEM (1/1; v/v) containing 15% FCS. 90000 to 120000 cells in 150 μl Ham's F-12/DMEM (1/1; v/v) containing 15% FCS were seeded per well and the plates were incubated under humidified atmosphere at 37° C. and 5% CO2 over night.
For each ligand a serial dilution giving eight different concentrations was prepared using Ham's F-12/DMEM (1/1; v/v). Before stimulation the medium on the cells was replaced by 100 μl Ham's F-12/DMEM (1/1; v/v) and the plates were incubated for 1 h under humidified atmosphere at 37° C. and 5% CO2. For stimulation the medium was removed again and the cells were incubated for 3 h in 80 μl of ligand-solution under humidified atmosphere at 37° C. and 5% CO2. In addition 80 μl of a 5 μM forskolin solution (in Ham's F-12/DMEM (1/1; v/v)) was used as a positive control and 80 μl of Ham's F-12/DMEM (1/1; v/v) as a negative control. Each concentration and the controls were tested as triplicates.
After 3 h of stimulation, the solutions were removed and the cells were washed with 50 μl of Ham's F-12/DMEM (1/1; v/v) per well. After 10 min incubation in 30 μl of Ham's F-12/DMEM (1/1; v/v) at room temperature, 30 μl of luciferase-solution (ONE-Glo™ Luciferase Assay System) was added and the luminescence was directly measured using an Infinite M200 (Tecan).
Data analysis of the luminescence measurement was carried out with GraphPad Prism 5. Therefore the measured luminescence values of each plate were first corrected on the base of the respective average of forskolin stimulation. Afterwards they were normalized to [G^14]ADM(14-52) which was used as standard peptide in every assay. After correction and normalization data was analysed using non-linear regression giving dose-response curves for each tested ligand.

T1 sequence (Q16602 23-461): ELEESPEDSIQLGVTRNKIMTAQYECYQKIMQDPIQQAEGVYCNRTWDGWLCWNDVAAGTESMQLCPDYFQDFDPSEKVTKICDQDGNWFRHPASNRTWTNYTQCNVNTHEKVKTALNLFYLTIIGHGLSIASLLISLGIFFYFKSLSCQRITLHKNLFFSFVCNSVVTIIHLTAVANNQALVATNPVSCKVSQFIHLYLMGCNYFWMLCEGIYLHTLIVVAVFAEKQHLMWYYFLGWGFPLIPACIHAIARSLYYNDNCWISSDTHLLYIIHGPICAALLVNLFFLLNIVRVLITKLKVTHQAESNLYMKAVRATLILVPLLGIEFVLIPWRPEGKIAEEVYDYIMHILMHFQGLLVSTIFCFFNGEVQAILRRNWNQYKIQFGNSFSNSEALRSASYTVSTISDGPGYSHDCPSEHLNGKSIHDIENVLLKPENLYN
T1 sequence (O60895 43-175): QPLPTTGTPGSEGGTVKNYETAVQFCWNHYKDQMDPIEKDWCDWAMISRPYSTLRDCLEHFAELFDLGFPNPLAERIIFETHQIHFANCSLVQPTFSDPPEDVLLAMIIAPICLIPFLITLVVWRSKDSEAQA

EC50	SMILES
0.041 µM	CC[C@H](C)[C@H](NC(=O)[C@H](CCC(N)=O)NC(=O)[C@H](Cc1c[nH]cn1)NC(=O)[C@H](C)NC(=O)[C@H](CC(C)C)NC(=O)[C@H](CCCCN)NC(=O)[C@H](CCC(N)=O)NC(=O)[C@@H](NC(=O)[C@@H](NC(=O)[C@@H]1CCNC(=O)CC[C@H](NC(=O)CNC(=O)CN)C(=O)N[C@@H](CCCNC(=N)N)C(=O)N[C@@H](Cc2ccccc2)C(=O)NCC(=O)N[C@@H]([C@@H](C)O)C(=O)N1)[C@@H](C)O)C(C)C)C(=O)N[C@@H](Cc1ccc(O)cc1)C(=O)N[C@@H](CCC(N)=O)C(=O)N[C@@H](Cc1ccccc1)C(=O)N[C@H](C(=O)N[C@@H](CC(=O)O)C(=O)N[C@@H](CCCCN)C(=O)N[C@@H](CC(=O)O)C(=O)N[C@@H](CCCCN)C(=O)N[C@@H](CC(=O)O)C(=O)N[C@@H](CC(N)=O)C(=O)N[C@H](C(=O)N[C@@H](C)C(=O)N1CCC[C@H]1C(=O)N[C@@H](CCCNC(=N)N)C(=O)N[C@@H](CO)C(=O)N[C@@H](CCCCN)C(=O)N[C@H](C(=O)N[C@@H](CO)C(=O)N1CCC[C@H]1C(=O)N[C@@H](CCC(N)=O)C(=O)NCC(=O)N[C@@H](Cc1ccc(O)cc1)C(N)=O)[C@@H](C)CC)C(C)C)[C@@H](C)O [Example 10, ((2S,5S,11S,14S,21S)-21-(2-(2-aminoacetamido)acetamido)-5-benzyl-2-(3-guanidinopropyl)-11-((R)-1-hydroxyethyl)-3,6,9,12,18,22-hexaoxo-1,4,7,10,13,17-hexaazacyclodocosane-14-carbonyl)-L-threonyl-ADM(22-52)] (H-GGERFGT[Dab]TVQKLAHQIYQFTDKDKDNVAPRSKISPQGY-NH2; lactam 3-8)
0.002 µM	CCCCCCCCCCCCCCCC(=O)NCCCC[C@H](N)C(=O)NCC(=O)N[C@H]1CNC(=O)CC[C@@H](C(=O)N[C@H](C(=O)N[C@H](C(=O)N[C@@H](CCC(N)=O)C(=O)N[C@@H](CCCCN)C(=O)N[C@@H](CC(C)C)C(=O)N[C@@H](C)C(=O)N[C@@H](Cc2c[nH]cn2)C(=O)N[C@@H](CCC(N)=O)C(=O)N[C@H](C(=O)N[C@@H](Cc2ccc(O)cc2)C(=O)N[C@@H](CCC(N)=O)C(=O)N[C@@H](Cc2ccccc2)C(=O)N[C@H](C(=O)N[C@@H](CC(=O)O)C(=O)N[C@@H](CCCCN)C(=O)N[C@@H](CC(=O)O)C(=O)N[C@@H](CCCCN)C(=O)N[C@@H](CC(=O)O)C(=O)N[C@@H](CC(N)=O)C(=O)N[C@H](C(=O)N[C@@H](C)C(=O)N2CCC[C@H]2C(=O)N[C@@H](CCCNC(=N)N)C(=O)N[C@@H](CO)C(=O)N[C@@H](CCCCN)C(=O)N[C@H](C(=O)N[C@@H](CO)C(=O)N2CCC[C@H]2C(=O)N[C@@H](CCC(N)=O)C(=O)NCC(=O)N[C@@H](Cc2ccc(O)cc2)C(N)=O)[C@@H](C)CC)C(C)C)[C@@H](C)O)[C@@H](C)CC)C(C)C)[C@@H](C)O)NC(=O)[C@H]([C@@H](C)O)NC(=O)CNC(=O)[C@H](Cc2ccccc2)NC(=O)[C@H](CCCNC(=N)N)NC1=O [Example 18, ((3S,9S,12S,15S,21S)-15-(2-((S)-2-amino-6-palmitamidohexanamido)acetamido)-9-benzyl-12-(3-guanidinopropyl)-3-((R)-1-hydroxyethyl)-2,5,8,11,14,18-hexaoxo-1,4,7,10,13,17-hexaazacyclohenicosane-21-carbonyl)-L-threonyl-ADM(22-52)] (H-K(Palmitoyl)G[Dap]RFGTETVQKLAHQIYQFTDKDKDNVAPRSKISPQGY-NH2; lactam 3-8)
0.0068 µM	CC[C@H](C)[C@H](NC(=O)[C@H](CCC(N)=O)NC(=O)[C@H](Cc1c[nH]cn1)NC(=O)[C@H](C)NC(=O)[C@H](CC(C)C)NC(=O)[C@H](CCCCN)NC(=O)[C@H](CCC(N)=O)NC(=O)[C@@H](NC(=O)[C@@H](NC(=O)[C@@H]1CSCC[C@H](NC(=O)CNC(=O)CN)C(=O)N[C@@H](CCCNC(=N)N)C(=O)N[C@@H](Cc2ccccc2)C(=O)NCC(=O)N[C@@H]([C@@H](C)O)C(=O)N1)[C@@H](C)O)C(C)C)C(=O)N[C@@H](Cc1ccc(O)cc1)C(=O)N[C@@H](CCC(N)=O)C(=O)N[C@@H](Cc1ccccc1)C(=O)N[C@H](C(=O)N[C@@H](CC(=O)O)C(=O)N[C@@H](CCCCN)C(=O)N[C@@H](CC(=O)O)C(=O)N[C@@H](CCCCN)C(=O)N[C@@H](CC(=O)O)C(=O)N[C@@H](CC(N)=O)C(=O)N[C@H](C(=O)N[C@@H](C)C(=O)N1CCC[C@H]1C(=O)N[C@@H](CCCNC(=N)N)C(=O)N[C@@H](CO)C(=O)N[C@@H](CCCCN)C(=O)N[C@H](C(=O)N[C@@H](CO)C(=O)N1CCC[C@H]1C(=O)N[C@@H](CCC(N)=O)C(=O)NCC(=O)N[C@@H](Cc1ccc(O)cc1)C(N)=O)[C@@H](C)CC)C(C)C)[C@@H](C)O [Example 16, ((3R,6S,12S,15S,18S)-18-(2-(2-aminoacetamido)acetamido)-12-benzyl-15-(3-guanidinopropyl)-6-((R)-1-hydroxyethyl)-5,8,11,14,17-pentaoxo-1-thia-4,7,10,13,16-pentaazacycloicosane-3-carbonyl)-L-threonyl-ADM(22-52)] (H-GG[Abu(4-yl)]RFGTCTVQKLAHQIYQFTDKDKDNVAPRSKISPQGY-NH2; thioether 3-8)
0.031 µM	CC[C@H](C)[C@H](NC(=O)[C@H](CCC(N)=O)NC(=O)[C@H](Cc1c[nH]cn1)NC(=O)[C@H](C)NC(=O)[C@H](CC(C)C)NC(=O)[C@H](CCCCN)NC(=O)[C@H](CCC(N)=O)NC(=O)[C@@H](NC(=O)[C@@H](NC(=O)[C@@H]1CCCCNC(=O)CC[C@H](NC(=O)CNC(=O)CN)C(=O)N[C@@H](CCCNC(=N)N)C(=O)N[C@@H](Cc2ccccc2)C(=O)NCC(=O)N[C@@H]([C@@H](C)O)C(=O)N1)[C@@H](C)O)C(C)C)C(=O)N[C@@H](Cc1ccc(O)cc1)C(=O)N[C@@H](CCC(N)=O)C(=O)N[C@@H](Cc1ccccc1)C(=O)N[C@H](C(=O)N[C@@H](CC(=O)O)C(=O)N[C@@H](CCCCN)C(=O)N[C@@H](CC(=O)O)C(=O)N[C@@H](CCCCN)C(=O)N[C@@H](CC(=O)O)C(=O)N[C@@H](CC(N)=O)C(=O)N[C@H](C(=O)N[C@@H](C)C(=O)N1CCC[C@H]1C(=O)N[C@@H](CCCNC(=N)N)C(=O)N[C@@H](CO)C(=O)N[C@@H](CCCCN)C(=O)N[C@H](C(=O)N[C@@H](CO)C(=O)N1CCC[C@H]1C(=O)N[C@@H](CCC(N)=O)C(=O)NCC(=O)N[C@@H](Cc1ccc(O)cc1)C(N)=O)[C@@H](C)CC)C(C)C)[C@@H](C)O [Example 1, ((2S,5S,11S,14S,23S)-23-(2-(2-aminoacetamido)acetamido)-5-benzyl-2-(3-guanidinopropyl)-11-((R)-1-hydroxyethyl)-3,6,9,12,20,24-hexaoxo-1,4,7,10,13,19-hexaazacyclotetracosane-14-carbonyl)-L-threonyl-ADM(22-52)] (H-GGERFGTKTVQKLAHQIYQFTDKDKDNVAPRSKISPQGY-NH2; lactam 3-8)
